Among the test systems are Hs-578T; BT-549; KM-20L2; LXFL 529; M19-MEL; SNB-78; XF498; DMS-114.
Common to all, as to assay: growth of human tumour cells (NCI), 48 h

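Results reflect a 48-hour exposure of cells in 96-well plates to compound at five concentrations. Here, GI50 denotes the concentration required for 50% inhibition of growth.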 Active and inactive are the calls of the source. No stated cut-off is given here; in the data, active = GI50 up to about 1.1 µM and inactive = higher. Bounds are passed on as bounds.

In the case of `C[C@H](CCC(=O)O)[C@H]1CC[C@H]2[C@@H]3[C@@H](O)C[C@@H]4C[C@H](O)CC[C@]4(C)[C@H]3C[C@H](O)[C@]12C`, the GI50 with Hs-578T is 16.4 µM (inactive).
For `CCCCc1ccc(Nc2nc(S)c3ncn(COCCO)c3n2)cc1`, the GI50 in the assay on BT-549 was 56.9 µM (inactive); with Hs-578T, 36.3 µM (inactive).
For `COC1OC(CO)C(O)C(OC(=O)c2cc(O)c(O)c(O)c2)C1OC(=O)c1cc(O)c(O)c(O)c1` (stereo not drawn) the same measures were > 100 µM (inactive) and > 100 µM (inactive).
For the compound `C[Si](C)(C)C1=C2C(=O)c3ccccc3C(=O)C2=C([Si](C)(C)C)[C@@H]2CCCC[C@H]12`, in the assay on BT-549, the GI50 was > 100 µM (inactive).
For `COc1ccc(N2C(=O)C3c4[nH]c5ccccc5c4C4CCCCCCCC4C3C2=O)cc1` (stereo not drawn), the GI50 in the assay with Hs-578T was > 10 µM (inactive).
Turning to `COc1cc(CNC(=O)CCCCCCCC/C=C/Br)ccc1O`, the GI50 with Hs-578T was > 10 µM (inactive).
`NNc1[nH]c(=S)[nH]c1C(N)=O`: the GI50 with BT-549 and in the assay with Hs-578T was > 100 µM (inactive) each time.
Take `CCOP(=O)(OCC)C(c1ccc(F)cc1)N(C(=O)NC(F)(F)F)c1ccc(F)cc1` (stereo not drawn): the GI50 in the assay on Hs-578T is > 100 µM (inactive).
For `Cc1cc(C#N)c(Nc2ccc(F)cc2[N+](=O)[O-])s1`, the GI50 with BT-549 is 24.4 µM (inactive).
Turning to `CN(C(=O)c1ccco1)C(=S)N1CCN(c2ccccn2)CC1`, the GI50 with KM-20L2, in the assay with LXFL 529, with M19-MEL, with SNB-78 and with XF498 was > 100 µM (inactive) throughout.
Regarding `C/C(=N/NC(=S)Nc1ccccc1C)c1ccccn1`, the GI50 with BT-549 was 3.14 µM (inactive); in the assay on Hs-578T, 15.7 µM (inactive).
Take `c1ccc(C(=NCCC2CNc3ccccc32)c2ccccc2)cc1` (stereo not drawn): the GI50 in the assay with BT-549 and in the assay with Hs-578T was > 100 µM (inactive) throughout.
As to `O=C1CC(O)c2cscc21` (stereo not drawn), the GI50 in the assay with BT-549 and in the assay on Hs-578T was > 100 µM (inactive) throughout.
Regarding `CCC/C(Cl)=N/OC(=O)Nc1cc(C(F)(F)F)ccc1OC`, the results for the GI50 in the assay on BT-549 and in the assay with Hs-578T were 15.5 µM (inactive) and 27.1 µM (inactive), respectively.
Turning to `C(=N/NC1=NCCN1)/c1c2ccccc2c(/C=N\NC2=NCCN2)c2ccccc12`, the GI50 with Hs-578T was 0.06 µM (active); in the assay on KM-20L2, 0.265 µM (active); in the assay on M19-MEL, 0.0757 µM (active); in the assay with SNB-78, 0.171 µM (active); in the assay with XF498 it was 0.0828 µM (active).
For `COc1ccc(C2(C3c4cc(OC)c(OC)cc4CCN3C)SCCCS2)cc1O` (stereo not drawn), the GI50 with BT-549 was > 100 µM (inactive); in the assay with Hs-578T, 23.7 µM (inactive).
On the same counts, the results for `C/C(Cc1ccc2c(c1)OCO2)=N\N=c1\sc2ccccc2n1C` are > 100 µM (inactive) and > 100 µM (inactive).
For `O=C1C2=Cc3ccccc3OC2(O)Oc2ccc(O)cc21` (stereo not drawn), the GI50 in the assay with BT-549 was 4.71 µM (inactive).
Consider `CN1CCC(CNC(=O)CCCCCCCCC(=O)NCC2(c3ccccc3)CCN(C)CC2)(c2ccccc2)CC1`, for which the GI50 was > 100 µM (inactive) in the assay on BT-549 and 84.1 µM (inactive) in the assay on Hs-578T.
For `CC1OC(OC2C(OC(=O)[C@]34CCC(C)(C)C[C@H]3C3=CC[C@@H]5[C@@]6(C)CC[C@H](OC7OC(CO)C(O)C(O)C7OC7OC(CO)C(O)C(O)C7O)C(C)(C)[C@@H]6CC[C@@]5(C)[C@]3(C)CC4)OCC(O)C2O)C(O)C(OC2OCC(O)C(O)C2O)C1OC1OCC(O)C(OC2OCC(O)C(O)C2O)C1O` (stereo partly drawn), the GI50 is 8.28 µM (inactive) with BT-549 and 21.4 µM (inactive) in the assay on Hs-578T.
On the same counts, the results for `Cn1c(=O)oc2cc(C(=S)N3CCCCC3)ccc21` are > 100 µM (inactive) and > 100 µM (inactive).
On the same counts, the results for `Cc1cn(C2CC(O)C(Cn3nncc3Cn3cnc4c(N)ncnc43)O2)c(=O)[nH]c1=O` (stereo not drawn) are > 100 µM (inactive) and > 100 µM (inactive).
With `N#Cc1sc2c(c1O)c(=O)n(-c1ccccc1)c(=S)n2-c1ccccc1`, the GI50 in the assay on BT-549 and in the assay with Hs-578T was > 100 µM (inactive) in each case.
With `Cc1cn(C2CC(n3cc(Cn4cc(I)c(=O)[nH]c4=O)nn3)C(CO)O2)c(=O)[nH]c1=O` (stereo not drawn), the GI50 with BT-549 and in the assay on Hs-578T was > 100 µM (inactive) throughout.
With `CCC1=CC2CN3CCc4c([nH]c5ccccc45)C(C(=O)OC)(C2)C13` (stereo not drawn), the GI50 in the assay with DMS-114 was 39.4 µM (inactive); in the assay on KM-20L2 it was 1.22 µM (inactive); with M19-MEL, 42.6 µM (inactive); in the assay with SNB-78 it was 64.7 µM (inactive); in the assay with XF498, 35.7 µM (inactive).
With `C=CCN1C(=O)NC(=O)/C(=C/c2c3ccccc3cc3ccccc23)C1=O`, the GI50 is 19.1 µM (inactive) in the assay on DMS-114, 34.4 µM (inactive) in the assay with M19-MEL, 21.1 µM (inactive) in the assay on SNB-78 and 21.8 µM (inactive) in the assay with XF498.
Consider `CN(C)/C=N/S(=O)(=O)c1nn2c(C=O)c(-c3ccc([N+](=O)[O-])cc3)nc2s1`, for which the GI50 was 3.79 µM (inactive) with BT-549 and 24.5 µM (inactive) with Hs-578T.
On to `C=CC(=O)C#Cc1cnc(OC)nc1OC`, for which the GI50 is 12.3 µM (inactive) in the assay with BT-549 and 33.3 µM (inactive) in the assay on Hs-578T.
Consider `Cc1cc2ncn(C3CCCO3)c2cc1C` (stereo not drawn), for which the GI50 in the assay on BT-549 and in the assay with Hs-578T was > 100 µM (inactive) in each case.
Consider `O=c1c2cn[nH]c2nc2scc(-c3ccc(Cl)cc3)n12`, for which, in the assay with Hs-578T, the GI50 is 41.7 µM (inactive).
For the compound `CN1Cc2ccccc2C2(COc3ccccc3C2=O)C1` (stereo not drawn), the GI50 in the assay on DMS-114 is > 100 µM (inactive); in the assay with KM-20L2, > 100 µM (inactive); in the assay with LXFL 529, 76.6 µM (inactive); with M19-MEL it was > 100 µM (inactive); in the assay on SNB-78 it was > 100 µM (inactive).

Values taken from ChEMBL document CHEMBL1201862, “PubChem BioAssay data set” (2004).
